In patent US10793580B2, “Substituted pyrazoloazepin-8-ones and their use as phosphodiesterase inhibitors” (LEO Pharma A/S, priority 2016, dated 2020) one finds IC50 data, which are given here for 29 compounds.

Sequence of human PDE4D catalytic domain (Q08499 380-740): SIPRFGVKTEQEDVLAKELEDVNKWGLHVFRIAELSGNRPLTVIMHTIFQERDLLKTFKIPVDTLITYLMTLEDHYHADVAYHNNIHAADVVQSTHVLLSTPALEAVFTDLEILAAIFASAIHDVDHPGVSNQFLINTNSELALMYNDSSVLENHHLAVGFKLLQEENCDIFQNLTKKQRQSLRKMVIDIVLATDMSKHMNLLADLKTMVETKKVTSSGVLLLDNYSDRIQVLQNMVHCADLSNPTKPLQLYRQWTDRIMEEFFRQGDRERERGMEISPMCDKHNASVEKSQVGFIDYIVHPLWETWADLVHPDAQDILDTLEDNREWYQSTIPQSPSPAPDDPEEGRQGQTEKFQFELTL

In the first test the target is human PDE4D catalytic domain (Homo sapiens (Human), UniProt Q08499). Nature of the test: PDE4 Assay (TR-FRET, FAM-cAMP cleavage). Format: biochemical. To be noted: Table 16, Examples 277-296; read-out: PDE4 IC50 range. In short, it runs like this:
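PDE4D catalytic domain (S380-L740) incubated briefly with unlabelled cAMP plus FAM-cAMP and titrated compound. Reaction stopped with binding buffer holding metal-ion nanoparticles that bind AMP phospho groups and Tb donor, and AMP formation read by TR-FRET. IC50 versus controls, reported as ranges (nM).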
For `CCn1nc(C[C@@H](C)COC(=O)C2CCN(C(=O)N(C)C)CC2)c2c1C(=O)NCC1(CCOCC1)C2` [Example 296, [(2R)-3-(1-ethyl-8-oxo-spiro[6,7-dihydro-4H-pyrazolo[3,4-c]azepine-5,4′-tetrahydropyran]-3-yl)-2-methyl-propyl] 1-(dimethylcarbamoyl)piperidine-4-carboxylate], the IC50 (commonly the midpoint of a concentration-inhibition curve) was less than 100 nM. As to `CCn1nc(C[C@@H](C)COC(=O)c2ccns2)c2c1C(=O)NCC1(CCOCC1)C2` [Example 283, [(2R)-3-(1-ethyl-8-oxo-spiro[6,7-dihydro-4H-pyrazolo[3,4-c]azepine-5,4′-tetrahydropyran]-3-yl)-2-methyl-propyl] isothiazole-5-carboxylate], the concentration for half-maximal inhibition (IC50) is less than 100 nM.

The same test, now with this note: human PDE4D catalytic domain (UniProt Q08499 [S380-L740]); 50% inhibition of substrate cleavage; read-out: PDE4 IC50 range.
For `CCn1ccc(C(=O)OCCCc2nn(CC)c3c2CC2(CCOCC2)CNC3=O)n1` [Example 248, 3-(1-ethyl-8-oxo-spiro[6,7-dihydro-4H-pyrazolo[3,4-c]azepine-5,4′-tetrahydropyran]-3-yl)propyl 1-ethylpyrazole-3-carboxylate], the 50% inhibitory concentration (IC50) was less than 100 nM. On the same count and under the same terms, under `CCn1nc(CC(C)(C)COC(=O)c2cccc(C(=O)N3CCCC3)c2)c2c1C(=O)NCC1(CCOCC1)C2` [Example 230, [3-(1-ethyl-8-oxo-spiro[6,7-dihydro-4H-pyrazolo[3,4-c]azepine-5,4′-tetrahydro-pyran]-3-yl)-2,2-dimethyl-propyl] 3-(pyrrolidine-1-carbonyl)benzoate] stands less than 100 nM. On the same count and under the same terms, under `CCn1nc(CCCOC(=O)c2ccc(C(=O)NC)cc2)c2c1C(=O)NCC1(CCOCC1)C2` [Example 105, 3-(1-ethyl-8-oxo-spiro[6,7-dihydro-4H-pyrazolo[3,4-c]azepine-5,4′-tetrahydro-pyran]-3-yl)propyl 4-(methylcarbamoyl)benzoate] stands less than 100 nM; under `CCn1nc(CCCOC(=O)c2cc(OC)cc(C(F)(F)F)c2)c2c1C(=O)NCC1(CCOCC1)C2` [Example 82, 3-(1-ethyl-8-oxo-spiro[6,7-dihydro-4H-pyrazolo[3,4-c]azepine-5,4′-tetrahydropyran]-3-yl)propyl 3-methoxy-5-(trifluoromethyl)benzoate], less than 100 nM. Same read-out and setting: next, `CCn1nc(CCCCOC(=O)c2ccc(C(C)=O)cc2)c2c1C(=O)NCC1(CCOCC1)C2` [Example 126, 4-(1-ethyl-8-oxo-spiro[6,7-dihydro-4H-pyrazolo[3,4-c]azepine-5,4′-tetrahydropyran]-3-yl)butyl 4-acetylbenzoate]: less than 100 nM; `CCn1nc(CCCOC(=O)c2cc(Cl)ccc2C)c2c1C(=O)NCC1(CCOCC1)C2` [Example 44, 3-(1-ethyl-8-oxo-spiro[6,7-dihydro-4H-pyrazolo[3,4-c]azepine-5,4′-tetrahydropyran]-3-yl)propyl 5-chloro-2-methyl-benzoate]: less than 100 nM; `CCn1nc(CCCOC(=O)c2cccc(S(=O)(=O)NC)c2)c2c1C(=O)NCC1(CCOCC1)C2` [Example 78, 3-(1-ethyl-8-oxo-spiro[6,7-dihydro-4H-pyrazolo[3,4-c]azepine-5,4′-tetrahydro-pyran]-3-yl)propyl 3-(methylsulfamoyl)benzoate]: less than 100 nM. Consider `CCn1nc(CCCOC(=O)c2ccc(C(=O)N(C)C)cc2)c2c1C(=O)NCC1(CCOCC1)C2` [Example 106, 3-(1-ethyl-8-oxo-spiro[6,7-dihydro-4H-pyrazolo[3,4-c]azepine-5,4′-tetrahydro-pyran]-3-yl)propyl 4-(dimethylcarbamoyl)benzoate], for which the IC50 is less than 100 nM. Same read-out and setting: under `CCn1nc(CCCOC(=O)c2ccc(OC)c(C)c2)c2c1C(=O)NCC1(CCOCC1)C2` [Example 33, 3-(1-ethyl-8-oxo-spiro[6,7-dihydro-4H-pyrazolo[3,4-c]azepine-5,4′-tetrahydropyran]-3-yl)propyl 4-methoxy-3-methyl-benzoate] stands less than 100 nM; under `CCn1nc(CCCOC(=O)c2cc(C#N)ccc2F)c2c1C(=O)NCC1(CCOCC1)C2` [Example 31, 3-(1-ethyl-8-oxo-spiro[6,7-dihydro-4H-pyrazolo[3,4-c]azepine-5,4′-tetrahydropyran]-3-yl)propyl 5-cyano-2-fluoro-benzoate], less than 100 nM; under `CCn1nc(CC(C)(C)COC(=O)c2ccccc2OC)c2c1C(=O)NCC1(CCOCC1)C2` [Example 198, [3-(1-ethyl-8-oxo-spiro[6,7-dihydro-4H-pyrazolo[3,4-c]azepine-5,4′-tetrahydropyran]-3-yl)-2,2-dimethyl-propyl] 2-methoxybenzoate], less than 100 nM.

For the compound `CCn1nc(CCCOC(=O)c2ccc(F)c(Cl)c2)c2c1C(=O)NCC1(CCOCC1)C2` [Example 54, 3-(1-ethyl-8-oxo-spiro[6,7-dihydro-4H-pyrazolo[3,4-c]azepine-5,4′-tetrahydropyran]-3-yl)propyl 3-chloro-4-fluoro-benzoate], the IC50 is less than 100 nM. Same read-out and setting: under `CCn1nc(C[C@@H](C)COC(=O)c2cccc(S(=O)(=O)C(C)C)c2)c2c1C(=O)NCC1(CCOCC1)C2` [Example 159, [(2R)-3-(1-ethyl-8-oxo-spiro[6,7-dihydro-4H-pyrazolo[3,4-c]azepine-5,4′-tetrahydropyran]-3-yl)-2-methyl-propyl] 3-isopropylsulfonylbenzoate] stands less than 100 nM; under `CCn1nc(CCCOC(=O)c2ccc(OC)c(F)c2)c2c1C(=O)NCC1(CCOCC1)C2` [Example 35, 3-(1-ethyl-8-oxo-spiro[6,7-dihydro-4H-pyrazolo[3,4-c]azepine-5,4′-tetrahydropyran]-3-yl)propyl 3-fluoro-4-methoxy-benzoate], less than 100 nM. The same measure, in the same setting: under `CCn1nc(CCCOC(=O)c2cccc(C(=O)N3CCOCC3)c2)c2c1C(=O)NCC1(CCOCC1)C2` [Example 118, 3-(1-ethyl-8-oxo-spiro[6,7-dihydro-4H-pyrazolo[3,4-c]azepine-5,4′-tetrahydropyran]-3-yl)propyl 3-(morpholine-4-carbonyl)benzoate] stands less than 100 nM; under `CCn1nc(C[C@@H](C)COC(=O)c2ccc(OC)cc2)c2c1C(=O)NCC1(CCOCC1)C2` [Example 149, [(2R)-3-(1-ethyl-8-oxo-spiro[6,7-dihydro-4H-pyrazolo[3,4-c]azepine-5,4′-tetrahydropyran]-3-yl)-2-methyl-propyl] 4-methoxybenzoate], less than 100 nM; under `CCn1nc(CCCOC(=O)C2CCN(C)CC2)c2c1C(=O)NCC1(CCOCC1)C2` [Example 256, 3-(1-ethyl-8-oxo-spiro[6,7-dihydro-4H-pyrazolo[3,4-c]azepine-5,4′-tetrahydropyran]-3-yl)propyl 1-methylpiperidine-4-carboxylate], 100 to 500 nM. Still for that read-out and setting: under `CCn1nc(CCCOC(=O)c2ccc(C(F)(F)F)cc2Cl)c2c1C(=O)NCC1(CCOCC1)C2` [Example 88, 3-(1-ethyl-8-oxo-spiro[6,7-dihydro-4H-pyrazolo[3,4-c]azepine-5,4′-tetrahydro-pyran]-3-yl)propyl 2-chloro-4-(trifluoromethyl)benzoate] stands less than 100 nM. For `CCn1nc(CCCOC(=O)c2cc(Cl)ccc2C(F)(F)F)c2c1C(=O)NCC1(CCOCC1)C2` [Example 87, 3-(1-ethyl-8-oxo-spiro[6,7-dihydro-4H-pyrazolo[3,4-c]azepine-5,4′-tetrahydro-pyran]-3-yl)propyl 5-chloro-2-(trifluoromethyl)benzoate], the IC50 is less than 100 nM.

`CCn1nc(CCOC(=O)c2ccc(C)cc2)c2c1C(=O)NCC1(CCOCC1)C2` [Example 135, 2-(1-ethyl-8-oxo-spiro[6,7-dihydro-4H-pyrazolo[3,4-c]azepine-5,4′-tetrahydropyran]-3-yl)ethyl 4-methylbenzoate]: the IC50 is less than 100 nM. In the case of `CCn1nc(C[C@@H](C)COC(=O)c2ccc(C(=O)N3CCOCC3)cc2)c2c1C(=O)NCC1(CCOCC1)C2` [Example 174, [(2R)-3-(1-ethyl-8-oxo-spiro[6,7-dihydro-4H-pyrazolo[3,4-c]azepine-5,4′-tetrahydropyran]-3-yl)-2-methyl-propyl] 4-(morpholine-4-carbonyl)benzoate], the IC50 is less than 100 nM.

Turning to `CCn1nc(CCCOC(=O)c2cc(F)ccc2Cl)c2c1C(=O)NCC1(CCOCC1)C2` [Example 46, 3-(1-ethyl-8-oxo-spiro[6,7-dihydro-4H-pyrazolo[3,4-c]azepine-5,4′-tetrahydropyran]-3-yl)propyl 2-chloro-5-fluoro-benzoate], the 50% inhibitory concentration (IC50) is less than 100 nM. Still for that read-out and setting: under `CCn1nc(CC(C)(C)COC(=O)c2ccc(C(C)=O)cc2)c2c1C(=O)NCC1(CCOCC1)C2` [Example 200, [3-(1-ethyl-8-oxo-spiro[6,7-dihydro-4H-pyrazolo[3,4-c]azepine-5,4′-tetrahydropyran]-3-yl)-2,2-dimethyl-propyl] 4-acetylbenzoate] stands less than 100 nM. On the same count and under the same terms, under `CCn1nc(C[C@@H](C)COC(=O)c2cccc(C)c2)c2c1C(=O)NCC1(CCOCC1)C2` [Example 142, [(2R)-3-(1-ethyl-8-oxo-spiro[6,7-dihydro-4H-pyrazolo[3,4-c]azepine-5,4′-tetrahydropyran]-3-yl)-2-methyl-propyl] 3-methylbenzoate] stands less than 100 nM; under `CCn1nc(C[C@@H](C)COC(=O)c2cccc(C(=O)N(C)C)c2)c2c1C(=O)NCC1(CCOCC1)C2` [Example 180, [(2R)-3-(1-ethyl-8-oxo-spiro[6,7-dihydro-4H-pyrazolo[3,4-c]azepine-5,4′-tetrahydropyran]-3-yl)-2-methyl-propyl] 3-(di-methylcarbamoyl)benzoate], less than 100 nM; under `CCn1nc(CCCOC(=O)c2ccc(Cl)cc2F)c2c1C(=O)NCC1(CCOCC1)C2` [Example 53, 3-(1-ethyl-8-oxo-spiro[6,7-dihydro-4H-pyrazolo[3,4-c]azepine-5,4′-tetrahydropyran]-3-yl)propyl 4-chloro-2-fluoro-benzoate], less than 100 nM. Still for that read-out and setting: next, `CCn1nc(CCCCOC(=O)c2ccc(C)cc2)c2c1C(=O)NCC1(CCOCC1)C2` [Example 123, 4-(1-ethyl-8-oxo-spiro[6,7-dihydro-4H-pyrazolo[3,4-c]azepine-5,4′-tetrahydropyran]-3-yl)butyl 4-methylbenzoate]: less than 100 nM.
